Assay results reported in PMC11420776 (RSC Advances, 2024).

Tests used:
[1] = system: CCRF-CEM (leukemia); assay: NCI 60-cell one-dose antiproliferative screen; type: cell-based, human; details: one dose 10 μM
[2] = system: RPMI-8226 (leukemia); assay: NCI 60-cell one-dose antiproliferative screen; type: cell-based, human; details: one dose 10 μM
[3] = system: A549/ATCC (NSC lung cancer); assay: NCI 60-cell one-dose antiproliferative screen; type: cell-based, human; details: one dose 10 μM
[4] = system: EKVX (NSC lung cancer); assay: NCI 60-cell one-dose antiproliferative screen; type: cell-based, human; details: one dose 10 μM
[5] = system: HOP-62 (NSC lung cancer); assay: NCI 60-cell one-dose antiproliferative screen; type: cell-based, human; details: one dose 10 μM
[6] = system: HOP-92 (NSC lung cancer); assay: NCI 60-cell one-dose antiproliferative screen; type: cell-based, human; details: one dose 10 μM
[7] = system: NCI-H226 (NSC lung cancer); assay: NCI 60-cell one-dose antiproliferative screen; type: cell-based, human; details: one dose 10 μM
[8] = system: NCI-H23 (NSC lung cancer); assay: NCI 60-cell one-dose antiproliferative screen; type: cell-based, human; details: one dose 10 μM
[9] = system: NCI-H322M (NSC lung cancer); assay: NCI 60-cell one-dose antiproliferative screen; type: cell-based, human; details: one dose 10 μM
[10] = system: NCI-H460 (NSC lung cancer); assay: NCI 60-cell one-dose antiproliferative screen; type: cell-based, human; details: one dose 10 μM
[11] = system: NCI-H522 (NSC lung cancer); assay: NCI 60-cell one-dose antiproliferative screen; type: cell-based, human; details: one dose 10 μM
[12] = system: COLO-205 (colon cancer); assay: NCI 60-cell one-dose antiproliferative screen; type: cell-based, human; details: one dose 10 μM
[13] = system: HCC-2998 (colon cancer); assay: NCI 60-cell one-dose antiproliferative screen; type: cell-based, human; details: one dose 10 μM
[14] = system: HCT-116 (colon cancer); assay: NCI 60-cell one-dose antiproliferative screen; type: cell-based, human; details: one dose 10 μM
[15] = system: HCT-15 (colon cancer); assay: NCI 60-cell one-dose antiproliferative screen; type: cell-based, human; details: one dose 10 μM
[16] = system: HT29 (colon cancer); assay: NCI 60-cell one-dose antiproliferative screen; type: cell-based, human; details: one dose 10 μM
[17] = system: KM12 (colon cancer); assay: NCI 60-cell one-dose antiproliferative screen; type: cell-based, human; details: one dose 10 μM
[18] = system: SW-620 (colon cancer); assay: NCI 60-cell one-dose antiproliferative screen; type: cell-based, human; details: one dose 10 μM
[19] = system: SF-268 (CNS cancer); assay: NCI 60-cell one-dose antiproliferative screen; type: cell-based, human; details: one dose 10 μM
[20] = system: SF-295 (CNS cancer); assay: NCI 60-cell one-dose antiproliferative screen; type: cell-based, human; details: one dose 10 μM
[21] = system: SF-539 (CNS cancer); assay: NCI 60-cell one-dose antiproliferative screen; type: cell-based, human; details: one dose 10 μM
[22] = system: SNB-19 (CNS cancer); assay: NCI 60-cell one-dose antiproliferative screen; type: cell-based, human; details: one dose 10 μM
[23] = system: SNB-75 (CNS cancer); assay: NCI 60-cell one-dose antiproliferative screen; type: cell-based, human; details: one dose 10 μM
[24] = system: U251 (CNS cancer); assay: NCI 60-cell one-dose antiproliferative screen; type: cell-based, human; details: one dose 10 μM
[25] = system: LOX IMIV (melanoma); assay: NCI 60-cell one-dose antiproliferative screen; type: cell-based, human; details: one dose 10 μM
[26] = system: MALME-3M (melanoma); assay: NCI 60-cell one-dose antiproliferative screen; type: cell-based, human; details: one dose 10 μM
[27] = system: M14 (melanoma); assay: NCI 60-cell one-dose antiproliferative screen; type: cell-based, human; details: one dose 10 μM
[28] = system: MDA-MB-435 (melanoma); assay: NCI 60-cell one-dose antiproliferative screen; type: cell-based, human; details: one dose 10 μM
[29] = system: SK-MEL-2 (melanoma); assay: NCI 60-cell one-dose antiproliferative screen; type: cell-based, human; details: one dose 10 μM
[30] = system: SK-MEL-28 (melanoma); assay: NCI 60-cell one-dose antiproliferative screen; type: cell-based, human; details: one dose 10 μM
[31] = system: UACC-257 (melanoma); assay: NCI 60-cell one-dose antiproliferative screen; type: cell-based, human; details: one dose 10 μM
[32] = system: UACC-62 (melanoma); assay: NCI 60-cell one-dose antiproliferative screen; type: cell-based, human; details: one dose 10 μM
[33] = system: IGROV1 (ovarian cancer); assay: NCI 60-cell one-dose antiproliferative screen; type: cell-based, human; details: one dose 10 μM
[34] = system: OVCAR-3 (ovarian cancer); assay: NCI 60-cell one-dose antiproliferative screen; type: cell-based, human; details: one dose 10 μM
[35] = system: OVCAR-4 (ovarian cancer); assay: NCI 60-cell one-dose antiproliferative screen; type: cell-based, human; details: one dose 10 μM
[36] = system: OVCAR-5 (ovarian cancer); assay: NCI 60-cell one-dose antiproliferative screen; type: cell-based, human; details: one dose 10 μM
[37] = system: OVCAR-8 (ovarian cancer); assay: NCI 60-cell one-dose antiproliferative screen; type: cell-based, human; details: one dose 10 μM
[38] = system: NCI/ADR-RES (ovarian cancer); assay: NCI 60-cell one-dose antiproliferative screen; type: cell-based, human; details: one dose 10 μM
[39] = system: SK-OV-3 (ovarian cancer); assay: NCI 60-cell one-dose antiproliferative screen; type: cell-based, human; details: one dose 10 μM
[40] = system: 786-0 (renal cancer); assay: NCI 60-cell one-dose antiproliferative screen; type: cell-based, human; details: one dose 10 μM
[41] = system: A498 (renal cancer); assay: NCI 60-cell one-dose antiproliferative screen; type: cell-based, human; details: one dose 10 μM
[42] = system: ACHN (renal cancer); assay: NCI 60-cell one-dose antiproliferative screen; type: cell-based, human; details: one dose 10 μM
[43] = system: CAKI-1 (renal cancer); assay: NCI 60-cell one-dose antiproliferative screen; type: cell-based, human; details: one dose 10 μM
[44] = system: RXF 393 (renal cancer); assay: NCI 60-cell one-dose antiproliferative screen; type: cell-based, human; details: one dose 10 μM
[45] = system: SN12C (renal cancer); assay: NCI 60-cell one-dose antiproliferative screen; type: cell-based, human; details: one dose 10 μM
[46] = system: TK-10 (renal cancer); assay: NCI 60-cell one-dose antiproliferative screen; type: cell-based, human; details: one dose 10 μM
[47] = system: UO-31 (renal cancer); assay: NCI 60-cell one-dose antiproliferative screen; type: cell-based, human; details: one dose 10 μM
[48] = system: PC-3 (prostate cancer); assay: NCI 60-cell one-dose antiproliferative screen; type: cell-based, human; details: one dose 10 μM
[49] = system: DU-145 (prostate cancer); assay: NCI 60-cell one-dose antiproliferative screen; type: cell-based, human; details: one dose 10 μM
[50] = system: MCF7 (breast cancer); assay: NCI 60-cell one-dose antiproliferative screen; type: cell-based, human; details: one dose 10 μM
[51] = system: MDA-MB-231/ATCC (breast cancer); assay: NCI 60-cell one-dose antiproliferative screen; type: cell-based, human; details: one dose 10 μM
[52] = system: HS 578T (breast cancer); assay: NCI 60-cell one-dose antiproliferative screen; type: cell-based, human; details: one dose 10 μM
[53] = system: T-47D (breast cancer); assay: NCI 60-cell one-dose antiproliferative screen; type: cell-based, human; details: one dose 10 μM
[54] = system: MDA-MB-468 (breast cancer); assay: NCI 60-cell one-dose antiproliferative screen; type: cell-based, human; details: one dose 10 μM
[55] = system: 60 human tumor cell lines; assay: NCI 60-cell one-dose antiproliferative screen, whole panel; type: cell-based

CC(=O)NNc1ccc2nnc(-c3ccccc3)n2n1 [Compound 6a, N′-(3-Phenyl-[1,2,4]triazolo[4,3-b]pyridazin-6-yl)acetohydrazide]
— (— GI% is below 15%): GI% [1] | GI% [2] | GI% [3] | GI% [4] | GI% [5] | GI% [6] | GI% [7] | GI% [8] | GI% [9] | GI% [10] | GI% [11] | GI% [12] | GI% [13] | GI% [14] | GI% [15] | GI% [16] | GI% [17] | GI% [18] | GI% [19] | GI% [20] | GI% [21] | GI% [22] | GI% [23] | GI% [24] | GI% [25] | GI% [26] | GI% [27] | GI% [28] | GI% [29] | GI% [30] | GI% [31] | GI% [32] | GI% [33] | GI% [34] | GI% [35] | GI% [36] | GI% [37] | GI% [38] | GI% [39] | GI% [40] | GI% [41] | GI% [42] | GI% [43] | GI% [44] | GI% [45] | GI% [46] | GI% [47] | GI% [48] | GI% [49] | GI% [50] | GI% [51] | GI% [52] | GI% [53] | GI% [54]
demolished cytotoxicity: cytotoxic activity in words ([55]; NCI-60 panel, one dose 10 μM)
< 15%: inhibition at 10 µM ([55]; Homo sapiens, 60 cell, read-out: Mean inhibition (mean GI%))
